ChEMBL document CHEMBL5126592, “Design, synthesis and activity against drug-resistant bacteria evaluation of C-20, C-23 modified 5-O-mycaminosyltylonolide derivatives” (Eur J Med Chem, 2022)
In brackets after ≈: the same amount, converted by molar mass.

Assays:
Assay type in all cases: functional
Settings in all cases: time 16-20 hrs
[1] = tested on: Staphylococcus aureus; test: Antibacterial activity against Staphylococcus aureus ATCC 25923 incubated for 16 to 20 hrs by broth microdilution method
[2] = tested on: Escherichia coli; test: Antibacterial activity against Escherichia coli ATCC 25922 incubated for 16 to 20 hrs by broth microdilution method
[3] = tested on: Cronobacter sakazakii; test: Antibacterial activity against Cronobacter sakazakii ATCC 29544 incubated for 16 to 20 hrs by broth microdilution method
[4] = tested on: Klebsiella pneumoniae; test: Antibacterial activity against Klebsiella pneumoniae ATCC 13883 incubated for 16 to 20 hrs by broth microdilution method

CC[C@H]1OC(=O)C[C@@H](O)[C@H](C)[C@@H](O[C@@H]2O[C@H](C)[C@@H](O)[C@H](N(C)C)[C@H]2O)[C@@H](CCN(Cc2cn(-c3cnc4ccccc4c3)nn2)Cc2ccco2)C[C@@H](C)C(=O)/C=C/C(C)=C/[C@@H]1CN1CCC(O)CC1
MIC [1]: 4 µg/mL (≈ 4.12 µM) | MIC [2]: 8 µg/mL (≈ 8.25 µM) | MIC [3]: 16 µg/mL (≈ 16.5 µM) | MIC [4]: 16 µg/mL (≈ 16.5 µM)

CC[C@H]1OC(=O)C[C@@H](O)[C@H](C)[C@@H](O[C@@H]2O[C@H](C)[C@@H](O)[C@H](N(C)C)[C@H]2O)[C@@H](CCN(Cc2ccc(OC)cc2)Cc2cn(-c3cnc4ccccc4c3)nn2)C[C@@H](C)C(=O)/C=C/C(C)=C/[C@@H]1CN(CC)CC
MIC [1]: 0.5 µg/mL (≈ 0.509 µM) | MIC [2]: 4 µg/mL (≈ 4.07 µM) | MIC [3]: 16 µg/mL (≈ 16.3 µM) | MIC [4]: 8 µg/mL (≈ 8.14 µM)

CC[C@H]1OC(=O)C[C@@H](O)[C@H](C)[C@@H](O[C@@H]2O[C@H](C)[C@@H](O)[C@H](N(C)C)[C@H]2O)[C@@H](CCN(Cc2ccc(N(C)C)cc2)Cc2cn(-c3cnc4ccccc4c3)nn2)C[C@@H](C)C(=O)/C=C/C(C)=C/[C@@H]1CN1CCC(O)CC1
MIC [1]: 2 µg/mL (≈ 1.95 µM) | MIC [2]: 16 µg/mL (≈ 15.6 µM) | MIC [3]: 32 µg/mL (≈ 31.3 µM) | MIC [4]: 16 µg/mL (≈ 15.6 µM)

CC[C@H]1OC(=O)C[C@@H](O)[C@H](C)[C@@H](O[C@@H]2O[C@H](C)[C@@H](O)[C@H](N(C)C)[C@H]2O)[C@@H](CCN(Cc2cn(-c3cnc4ccccc4c3)nn2)Cc2ccco2)C[C@@H](C)C(=O)/C=C/C(C)=C/[C@@H]1CO
MIC [1]: 0.125 µg/mL (≈ 0.141 µM) | MIC [2]: 8 µg/mL (≈ 9.02 µM) | MIC [3]: 32 µg/mL (≈ 36.1 µM) | MIC [4]: 16 µg/mL (≈ 18 µM)

CC[C@H]1OC(=O)C[C@@H](O)[C@H](C)[C@@H](O[C@@H]2O[C@H](C)[C@@H](O)[C@H](N(C)C)[C@H]2O)[C@@H](CCN(Cc2cn(-c3cnc4ccccc4c3)nn2)Cc2ccco2)C[C@@H](C)C(=O)/C=C/C(C)=C/[C@@H]1CN1CC(C)CC(C)C1 (stereo partly drawn)
MIC [1]: 2 µg/mL (≈ 2.04 µM) | MIC [2]: 16 µg/mL (≈ 16.3 µM) | MIC [3]: 16 µg/mL (≈ 16.3 µM) | MIC [4]: 16 µg/mL (≈ 16.3 µM)

CC[C@H]1OC(=O)C[C@@H](O)[C@H](C)[C@@H](O[C@@H]2O[C@H](C)[C@@H](O)[C@H](N(C)C)[C@H]2O)[C@@H](CCN(Cc2ccccc2)Cc2cn(-c3cnc4ccccc4c3)nn2)C[C@@H](C)C(=O)/C=C/C(C)=C/[C@@H]1CI
MIC [1]: 2 µg/mL (≈ 1.99 µM) | MIC [2]: 32 µg/mL (≈ 31.8 µM) | MIC [3]: 32 µg/mL (≈ 31.8 µM) | MIC [4]: 32 µg/mL (≈ 31.8 µM)

CCCN(CCC)C[C@H]1/C=C(C)/C=C/C(=O)[C@H](C)C[C@H](CCN(Cc2ccc(Br)cc2)Cc2cn(-c3cnc4ccccc4c3)nn2)[C@H](O[C@@H]2O[C@H](C)[C@@H](O)[C@H](N(C)C)[C@H]2O)[C@@H](C)[C@H](O)CC(=O)O[C@@H]1CC
MIC [1]: 1 µg/mL (≈ 0.944 µM) | MIC [2]: 8 µg/mL (≈ 7.55 µM) | MIC [3]: 8 µg/mL (≈ 7.55 µM) | MIC [4]: 8 µg/mL (≈ 7.55 µM)

CC[C@H]1OC(=O)C[C@@H](O)[C@H](C)[C@@H](O[C@@H]2O[C@H](C)[C@@H](O)[C@H](N(C)C)[C@H]2O)[C@@H](CCN(C)Cc2cn(-c3cnc4ccccc4c3)nn2)C[C@@H](C)C(=O)/C=C/C(C)=C/[C@@H]1CN1CC(C)CC(C)C1 (stereo partly drawn)
MIC [1]: 2 µg/mL (≈ 2.18 µM) | MIC [2]: 8 µg/mL (≈ 8.73 µM) | MIC [3]: 16 µg/mL (≈ 17.5 µM) | MIC [4]: 8 µg/mL (≈ 8.73 µM)

CC[C@H]1OC(=O)C[C@@H](O)[C@H](C)[C@@H](O[C@@H]2O[C@H](C)[C@@H](O)[C@H](N(C)C)[C@H]2O)[C@@H](CCN(Cc2ccc(N(C)C)cc2)Cc2cn(-c3cnc4ccccc4c3)nn2)C[C@@H](C)C(=O)/C=C/C(C)=C/[C@@H]1CO
MIC [1]: 0.25 µg/mL (≈ 0.266 µM) | MIC [2]: 8 µg/mL (≈ 8.51 µM) | MIC [3]: 16 µg/mL (≈ 17 µM) | MIC [4]: 16 µg/mL (≈ 17 µM)

CC[C@H]1OC(=O)C[C@@H](O)[C@H](C)[C@@H](O[C@@H]2O[C@H](C)[C@@H](O)[C@H](N(C)C)[C@H]2O)[C@@H](CCN(Cc2ccc(Br)cc2)Cc2cn(-c3cnc4ccccc4c3)nn2)C[C@@H](C)C(=O)/C=C/C(C)=C/[C@@H]1CI
MIC [1]: 4 µg/mL (≈ 3.68 µM) | MIC [2]: 32 µg/mL (≈ 29.5 µM) | MIC [3]: 16 µg/mL (≈ 14.7 µM) | MIC [4]: 32 µg/mL (≈ 29.5 µM)

CC[C@H]1OC(=O)C[C@@H](O)[C@H](C)[C@@H](O[C@@H]2O[C@H](C)[C@@H](O)[C@H](N(C)C)[C@H]2O)[C@@H](CCN(Cc2ccc(OC)cc2)Cc2cn(-c3cnc4ccccc4c3)nn2)C[C@@H](C)C(=O)/C=C/C(C)=C/[C@@H]1CN(C)C
MIC [1]: 1 µg/mL (≈ 1.05 µM) | MIC [2]: 8 µg/mL (≈ 8.38 µM) | MIC [3]: 32 µg/mL (≈ 33.5 µM) | MIC [4]: 8 µg/mL (≈ 8.38 µM)

CC[C@H]1OC(=O)C[C@@H](O)[C@H](C)[C@@H](O[C@@H]2O[C@H](C)[C@@H](O)[C@H](N(C)C)[C@H]2O)[C@@H](CCN(Cc2ccc(N(C)C)cc2)Cc2cn(-c3cnc4ccccc4c3)nn2)C[C@@H](C)C(=O)/C=C/C(C)=C/[C@@H]1CI
MIC [1]: 4 µg/mL (≈ 3.81 µM) | MIC [2]: 32 µg/mL (≈ 30.5 µM) | MIC [3]: 32 µg/mL (≈ 30.5 µM) | MIC [4]: 16 µg/mL (≈ 15.2 µM)
